Results from US20080015237A1 (ASTRAZENECA AB, priority 2006, published 2008).

biological target: human Kv1.5 channel (Homo sapiens, UniProt P22460); assay: Test A: Rb+ efflux assay; type: cell-based; settings: CHO cells stably transfected with cDNA for human Kv1.5
Method: This assay identifies compounds that block the human Kv1.5 channel potassium channel heterologously expressed in Chinese Hamster Ovary (CHO) cells by means of Rb+ ion efflux using Flame Atomic Absorption Spectroscopy. For experimental studies, CHO cells stably transfected with cDNA for human Kv1.5 were grown as confluent layers in Falcon, 384-well tissue culture-treated black-walled clear-bottomed plates and the plates were incubated overnight at 37° C. in a cell culture incubator.
After incubating overnight the cell plates were washed and a buffer containing Rb+ ions were added to the cell plates. The plates were then incubated for another 3-4 hours in a CO2-incubator (37° C.). Following this incubation period plates were washed, compounds were added and subsequently a buffer containing elevated K+ concentrations were added in order to activate the Kv1.5 channel. Following a short incubation time, aliquots of the supernatants were transferred to supernatant plates for subsequent determination of the Rb+ content using Atomic Absorption Spectrometry (ICR8000 instrument, Aurora Biomed Inc.).

Sequence of human Kv1.5 channel (P22460 whole entry): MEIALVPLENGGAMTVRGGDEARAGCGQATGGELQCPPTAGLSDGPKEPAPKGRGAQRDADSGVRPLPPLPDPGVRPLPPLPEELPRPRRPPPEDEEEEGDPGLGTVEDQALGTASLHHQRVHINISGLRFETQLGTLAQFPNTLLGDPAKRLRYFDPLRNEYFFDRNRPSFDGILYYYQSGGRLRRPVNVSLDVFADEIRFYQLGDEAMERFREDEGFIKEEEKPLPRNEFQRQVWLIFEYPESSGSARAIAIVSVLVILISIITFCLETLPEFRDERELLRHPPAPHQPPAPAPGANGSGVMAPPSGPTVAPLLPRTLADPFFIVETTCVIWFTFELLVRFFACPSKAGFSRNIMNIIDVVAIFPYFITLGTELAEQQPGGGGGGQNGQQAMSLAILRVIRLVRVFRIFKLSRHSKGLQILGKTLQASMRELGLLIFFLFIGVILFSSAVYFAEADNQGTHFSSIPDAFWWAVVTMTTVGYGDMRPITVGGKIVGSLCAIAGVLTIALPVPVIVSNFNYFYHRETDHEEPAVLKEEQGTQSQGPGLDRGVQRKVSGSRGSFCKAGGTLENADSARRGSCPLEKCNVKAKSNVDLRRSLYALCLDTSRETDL

SMILES	IC50 [nM]
CNC(=O)C1c2cc(Br)ccc2C(=O)N1Cc1ccccc1C1CCCC1 (stereo not shown) [6-bromo-2-(2-cyclopentylbenzyl)-N-methyl-3-oxoisoindoline-1-carboxamide]	2700
CC(C)(C)CCN1C(=O)c2ccccc2C1C(=O)NCc1cccc(OC(F)F)c1 (stereo not shown) [N-[3-(difluoromethoxy)benzyl]-2-(3,3-dimethylbutyl)-3-oxoisoindoline-1-carboxamide]	1800
C[C@H](c1ccccc1)N1C(=O)c2ccc(Cl)cc2C1C(=O)NCCCC(F)(F)F (stereo partly drawn) [6-chloro-3-oxo-2-[(1R)-1-phenylethyl]-N-(4,4,4-trifluorobutyl)isoindoline-1-carboxamide]	2000
O=C(NCc1ccccc1)C1c2ccccc2C(=O)N1CCc1ccc(Cl)cc1 (stereo not shown) [N-benzyl-2-[2-(4-chlorophenyl)ethyl]-3-oxoisoindoline-1-carboxamide]	560
O=C(NCCCC(F)F)C1c2cc(Cl)ccc2C(=O)N1Cc1ccccc1C1CCCC1 (stereo not shown) [6-chloro-2-(2-cyclopentylbenzyl)-N-(4,4-difluorobutyl)-3-oxoisoindoline-1-carboxamide]	1300
CC(C)(C)NC(=O)C1c2ccccc2C(=O)N1Cc1cc(F)ccc1-c1ccccc1 (stereo not shown) [N-(tert-butyl)-2-[(4-fluorobiphenyl-2-yl)methyl]-3-oxoisoindoline-1-carboxamide]	5200
CCCCN(Cc1ccccc1)C(=O)C1c2ccccc2C(=O)N1CCc1ccc(Cl)cc1 (stereo not shown) [N-benzyl-N-butyl-2-[2-(4-chlorophenyl)ethyl]-3-oxoisoindoline-1-carboxamide]	340
CCCNC(=O)C1c2ccccc2C(=O)N1CC(C)c1ccc(Cl)cc1 (stereo not shown) [2-[2-(4-chlorophenyl)propyl]-3-oxo-N-propylisoindoline-1-carboxamide]	1300
Cc1c(O)ccc2c1C(=O)N(Cc1ccccc1-c1ccc(Cl)c(Cl)c1)C2C(=O)NC(C)(C)C (stereo not shown) [N-(tert-butyl)-2-[(3′,4′-dichlorobiphenyl-2-yl)methyl]-5-hydroxy-4-methyl-3-oxoisoindoline-1-carboxamide]	720
CC(CN1C(=O)c2ccccc2C1C(=O)NCc1ccccc1Cl)c1ccc(Cl)cc1 (stereo not shown) [N-(2-chlorobenzyl)-2-[2-(4-chlorophenyl)propyl]-3-oxoisoindoline-1-carboxamide]	750
CC(CN1C(=O)c2ccc(Cl)cc2C1C(=O)NCCCC(F)(F)F)c1ccc(Cl)cc1 (stereo not shown) [6-chloro-2-[2-(4-chlorophenyl)propyl]-3-oxo-N-(4,4,4-trifluorobutyl)isoindoline-1-carboxamide]	460
Cc1c(O)ccc2c1C(=O)N(Cc1ccccc1-c1ccc(F)c(F)c1)C2C(=O)NC(C)(C)C (stereo not shown) [N-(tert-butyl)-2-[(3′,4′-difluorobiphenyl-2-yl)methyl]-5-hydroxy-4-methyl-3-oxoisoindoline-1-carboxamide]	2000
CCCCNC(=O)C1c2cc(F)ccc2C(=O)N1CC(C)c1ccc(Cl)cc1 (single isomer, unassigned) [(1S or 1R)-N-butyl-2-[(2R or 2S)-2-(4-chlorophenyl)propyl]-6-fluoro-3-oxoisoindoline-1-carboxamide]	730
Cn1nc(CN2C(=O)c3ccccc3C2C(=O)NC(C)(C)C)cc1-c1ccccc1 (stereo not shown) [N-(tert-butyl)-2-[(1-methyl-5-phenyl-1H-pyrazol-3-yl)methyl]-3-oxoisoindoline-1-carboxamide]	2500
CC(CN1C(=O)c2ccccc2C1C(=O)NCc1ccc(F)cc1)c1ccc(Cl)cc1 (stereo not shown) [2-[2-(4-chlorophenyl)propyl]-N-(4-fluorobenzyl)-3-oxoisoindoline-1-carboxamide]	1900
CC(CN1C(=O)c2ccccc2C1C(=O)NCc1ccc2c(c1)OC(F)(F)O2)c1ccc(Cl)cc1 (stereo not shown) [2-[2-(4-chlorophenyl)propyl]-N-[(2,2-difluoro-1,3-benzodioxol-5-yl)methyl]-3-oxoisoindoline-1-carboxamide]	580
CC(C)(CO)CN1C(=O)c2ccc(F)cc2C1C(=O)NCc1cccc(C(F)(F)F)c1 (stereo not shown) [6-fluoro-2-(3-hydroxy-2,2-dimethylpropyl)-3-oxo-N-[3-(trifluoromethyl)benzyl]isoindoline-1-carboxamide]	1700
C[C@H](c1ccccc1)N1C(=O)c2ccc(Cl)cc2C1C(=O)NCc1ccccc1 (stereo partly drawn) [N-benzyl-6-chloro-3-oxo-2-[(1R)-1-phenylethyl]isoindoline-1-carboxamide]	550
CC(C)(CO)CN1C(=O)c2ccc(Cl)cc2C1C(=O)NCc1cccc(Cl)c1 (stereo not shown) [6-chloro-N-(3-chlorobenzyl)-2-(3-hydroxy-2,2-dimethylpropyl)-3-oxoisoindoline-1-carboxamide]	2100
CC(C)(C)NC(=O)C1c2cc(C#N)ccc2C(=O)N1Cc1ccccc1-c1ccccc1 (stereo not shown) [2-(biphenyl-2-ylmethyl)-N-(tert-butyl)-6-cyano-3-oxoisoindoline-1-carboxamide]	2400
CN(C)c1ccc(CNC(=O)C2c3ccccc3C(=O)N2Cc2cc(C(F)(F)F)cc(C(F)(F)F)c2)cc1 (stereo not shown) [2-[3,5-bis(trifluoromethyl)benzyl]-N-[4-(dimethylamino)benzyl]-3-oxoisoindoline-1-carboxamide]	1800
CCCNC(=O)C1c2cc(Cl)ccc2C(=O)N1Cc1ccccc1-c1ccccc1 (stereo not shown) [2-(biphenyl-2-ylmethyl)-6-chloro-3-oxo-N-propylisoindoline-1-carboxamide]	1100
Cc1c(O)ccc2c1C(=O)N(Cc1ccccc1-c1ccccc1)C2C(=O)NC(C)(C)C (single isomer, unassigned) [(S or R) 2-(biphenyl-2-ylmethyl)-N-(tert-butyl)-5-hydroxy-4-methyl-3-oxoisoindoline-1-carboxamide]	17000
CCN(Cc1ccccc1)C(=O)C1c2ccccc2C(=O)N1CCc1ccc(Cl)cc1 (stereo not shown) [N-benzyl-2-[2-(4-chlorophenyl)ethyl]-N-ethyl-3-oxoisoindoline-1-carboxamide]	930
O=C(NCCCC(F)(F)F)C1c2cc(Cl)ccc2C(=O)N1Cc1ccccc1C(F)(F)F (stereo not shown) [6-chloro-3-oxo-N-(4,4,4-trifluorobutyl)-2-[2-(trifluoromethyl)benzyl]isoindoline-1-carboxamide]	2500

Further molecules by falling IC50, results first:

IC50 [nM]	SMILES
13000	CC(C)(C)NC(=O)C1c2ccccc2C(=O)N1Cc1ccc(F)cc1-c1ccccc1 (stereo not shown) [N-(tert-butyl)-2-[(5-fluorobiphenyl-2-yl)methyl]-3-oxoisoindoline-1-carboxamide]
6700	CC(C)(C)NC(=O)C1c2cc(F)ccc2C(=O)N1Cc1ccccc1-c1ccccc1 (stereo not shown) [2-(biphenyl-2-ylmethyl)-N-(tert-butyl)-6-fluoro-3-oxoisoindoline-1-carboxamide]
5500	CC(C)(C)NC(=O)C1c2ccccc2C(=O)N1Cc1ccccc1-c1ccc(F)c(F)c1 (single isomer, unassigned) [(1S or 1R)-N-(tert-butyl)-2-[(3′,4′-difluorobiphenyl-2-yl)methyl]-3-oxoisoindoline-1-carboxamide]
3000	Cc1c(OCF)ccc2c1C(=O)N(CC(C)c1ccc(Cl)cc1)C2C(=O)NC(C)(C)C (stereo not shown) [N-(tert-butyl)-2-[2-(4-chlorophenyl)propyl]-5-(fluoromethoxy)-4-methyl-3-oxoisoindoline-1-carboxamide]
2400	CC(C)(C)NC(=O)C1c2cc(Br)ccc2C(=O)N1Cc1ccccc1-c1ccccc1 (stereo not shown) [2-(biphenyl-2-ylmethyl)-6-bromo-N-(tert-butyl)-3-oxoisoindoline-1-carboxamide]
2200	CC(C)(C)NC(=O)C1c2ccccc2C(=O)N1Cc1ccccc1-c1ccc(F)c(F)c1 (stereo not shown) [N-(tert-butyl)-2-[(3′,4′-difluorobiphenyl-2-yl)methyl]-3-oxoisoindoline-1-carboxamide]
2100	O=C(NCc1ccc(F)cc1)C1c2ccccc2C(=O)N1C(c1ccncc1)c1ccc(Cl)cc1 (stereo not shown) [2-[(4-chlorophenyl)(pyridin-4-yl)methyl]-N-(4-fluorobenzyl)-3-oxoisoindoline-1-carboxamide]
2000	Cc1c(O)ccc2c1C(=O)N(Cc1ccccc1Oc1ccc(C(F)(F)F)cc1)C2C(=O)NC(C)(C)C (stereo not shown) [N-(tert-butyl)-5-hydroxy-4-methyl-3-oxo-2-{2-[4-(trifluoromethyl)phenoxy]benzyl}isoindoline-1-carboxamide]
1300	CCCCNC(=O)C1c2c(F)cccc2C(=O)N1CC(C)c1ccc(Cl)cc1 (stereo not shown)
1000	O=C(NCc1ccccc1)C1c2ccccc2C(=O)N1Cc1ccccc1-c1ccccc1 (stereo not shown) [N-benzyl-2-(biphenyl-2-ylmethyl)-3-oxoisoindoline-1-carboxamide]
740	COc1cc2c(cc1OC)C(C(=O)NCc1ccccc1)N(CC(C)c1ccc(Cl)cc1)C2=O (stereo not shown) [N-benzyl-2-[2-(4-chlorophenyl)propyl]-5,6-dimethoxy-3-oxoisoindoline-1-carboxamide]
680	CC(CN1C(=O)c2ccc(Cl)cc2C1C(=O)NCc1cccnc1)c1ccc(Cl)cc1 (stereo not shown) [6-chloro-2-[2-(4-chlorophenyl)propyl]-3-oxo-N-(pyridin-3-ylmethyl)isoindoline-1-carboxamide]
610	O=C(NCCCC(F)(F)F)C1c2cc(Cl)ccc2C(=O)N1Cc1ccccc1-c1ccccc1 (stereo not shown) [2-(biphenyl-2-ylmethyl)-6-chloro-3-oxo-N-(4,4,4-trifluorobutyl)isoindoline-1-carboxamide]
340	CC(C)(CO)CN1C(=O)c2ccc(F)cc2C1C(=O)NCc1cccc(Cl)c1 (stereo not shown) [N-(3-chlorobenzyl)-6-fluoro-2-(3-hydroxy-2,2-dimethylpropyl)-3-oxoisoindoline-1-carboxamide]
150	CC(CN1C(=O)c2ccc(Cl)cc2C1C(=O)NCc1ccccc1)c1ccc(Cl)cc1 (stereo not shown) [N-benzyl-6-chloro-2-[2-(4-chlorophenyl)propyl]-3-oxoisoindoline-1-carboxamide]
